Test results: the NIST ThermoML archive (doi:10.1021/je060271a)
Values joined by “and” are separate entries in the source; they are usually repeats but may differ in a detail not shown here. Identical values can stand only once.

Settings: 343.15 K, Liquid, Vibrating tube method

CCCCCC(=O)OCC(COC(=O)CCCCC)(COC(=O)CCCCC)COC(=O)CCCCC [pentaerythritol tetrahexanoate]
Settings | mass density
203.8 kPa | 957.2 kg/m3
203.9 kPa | 957.2 kg/m3 and 957.1 kg/m3
204 kPa | 957.1 kg/m3
204.1 kPa | 957.1 kg/m3 and 957.2 kg/m3
204.3 kPa | 957.2 kg/m3 and 957.3 kg/m3
204.5 kPa | 957.2 kg/m3 and 957.3 kg/m3
204.6 kPa | 957.2 kg/m3 and 957.3 kg/m3
204.8 kPa | 957.3 kg/m3 [middle of 4 runs]
205 kPa | 957.2 kg/m3 and 957.3 kg/m3
205.2 kPa | 957.2 kg/m3
205.3 kPa | 957.2 kg/m3 and 957.3 kg/m3
205.7 kPa | 957.2 kg/m3
205.9 kPa | 957.2 kg/m3
206 kPa | 957.2 kg/m3
206.2 kPa | 957.2 kg/m3
206.4 kPa | 957.2 kg/m3
206.6 kPa | 957.2 kg/m3 and 957.1 kg/m3
206.7 kPa | 957.3 kg/m3 and 957.2 kg/m3
206.9 kPa | 957.3 kg/m3 and 957.1 kg/m3
207.1 kPa | 957.2 kg/m3
207.2 kPa | 957.2 kg/m3
207.3 kPa | 957.2 kg/m3
207.4 kPa | 957.2 kg/m3
207.9 kPa | 957.3 kg/m3
208.3 kPa | 957.2 kg/m3
208.6 kPa | 957.2 kg/m3 and 957.1 kg/m3
208.8 kPa | 957.3 kg/m3 and 957.2 kg/m3
209 kPa | 957.2 kg/m3
209.2 kPa | 957.3 kg/m3 and 957.2 kg/m3
209.3 kPa | 957.2 kg/m3 and 957.3 kg/m3 and 957.1 kg/m3
209.5 kPa | 957.2 kg/m3
209.7 kPa | 957.2 kg/m3
209.9 kPa | 957.1 kg/m3 and 957.2 kg/m3
211.1 kPa | 957.2 kg/m3
212.5 kPa | 957.1 kg/m3
212.6 kPa | 957.2 kg/m3 and 957.3 kg/m3
212.7 kPa | 957.2 kg/m3
212.8 kPa | 957.1 kg/m3 and 957.2 kg/m3
213 kPa | 957.2 kg/m3
213.2 kPa | 957.2 kg/m3
213.3 kPa | 957.2 kg/m3
213.5 kPa | 957.3 kg/m3 and 957.2 kg/m3
213.7 kPa | 957.3 kg/m3 and 957.2 kg/m3 and 957.1 kg/m3
213.9 kPa | 957.2 kg/m3 and 957.1 kg/m3 and 957.4 kg/m3
214.2 kPa | 957.1 kg/m3
215.2 kPa | 957.2 kg/m3
215.3 kPa | 957.3 kg/m3
215.4 kPa | 957.2 kg/m3 and 957.1 kg/m3 and 957.3 kg/m3
215.6 kPa | 957.4 kg/m3 and 957.1 kg/m3 and 957.2 kg/m3
215.8 kPa | 957.3 kg/m3
215.9 kPa | 957.2 kg/m3
216 kPa | 957.3 kg/m3
216.1 kPa | 957.3 kg/m3 and 957.2 kg/m3
216.3 kPa | 957.2 kg/m3 and 957.3 kg/m3
216.5 kPa | 957.3 kg/m3 and 957.2 kg/m3
216.6 kPa | 957.3 kg/m3
216.8 kPa | 957.2 kg/m3 and 957.1 kg/m3
217.7 kPa | 957.2 kg/m3 and 957.3 kg/m3
218 kPa | 957.4 kg/m3
218.2 kPa | 957.1 kg/m3 and 957.2 kg/m3
218.6 kPa | 957.2 kg/m3
218.9 kPa | 957.2 kg/m3
219.1 kPa | 957.2 kg/m3
219.3 kPa | 957.3 kg/m3
219.4 kPa | 957.1 kg/m3 and 957.2 kg/m3 and 957.3 kg/m3
219.6 kPa | 957.4 kg/m3
219.8 kPa | 957.2 kg/m3
219.9 kPa | 957.1 kg/m3
220 kPa | 957.2 kg/m3
220.3 kPa | 957.2 kg/m3
220.5 kPa | 957.2 kg/m3
220.6 kPa | 957.1 kg/m3
220.8 kPa | 957.1 kg/m3
221 kPa | 957.1 kg/m3
221.2 kPa | 957.3 kg/m3
221.3 kPa | 957.2 kg/m3
222.7 kPa | 957.3 kg/m3
222.9 kPa | 957.1 kg/m3
223.1 kPa | 957.2 kg/m3
223.3 kPa | 957.3 kg/m3 and 957.4 kg/m3
223.4 kPa | 957.1 kg/m3 and 957.3 kg/m3 and 957.2 kg/m3
223.6 kPa | 957.2 kg/m3
223.8 kPa | 957.3 kg/m3
224.1 kPa | 957.2 kg/m3
224.3 kPa | 957.3 kg/m3 and 957.2 kg/m3
224.5 kPa | 957.2 kg/m3 and 957.3 kg/m3 and 957.1 kg/m3
224.7 kPa | 957.2 kg/m3
224.8 kPa | 957.3 kg/m3 and 957.2 kg/m3
225.2 kPa | 957.3 kg/m3
226.9 kPa | 957.2 kg/m3 and 957.3 kg/m3
227.1 kPa | 957.3 kg/m3
227.4 kPa | 957.2 kg/m3
231.3 kPa | 957.2 kg/m3 and 957.3 kg/m3
231.6 kPa | 957.3 kg/m3 and 957.1 kg/m3
232 kPa | 957.1 kg/m3 and 957.2 kg/m3
232.3 kPa | 957.3 kg/m3 and 957.2 kg/m3
232.5 kPa | 957.2 kg/m3
232.6 kPa | 957.3 kg/m3
232.7 kPa | 957.3 kg/m3
233 kPa | 957.2 kg/m3
233.2 kPa | 957.2 kg/m3
233.3 kPa | 957.2 kg/m3
233.5 kPa | 957.2 kg/m3
233.7 kPa | 957.3 kg/m3
233.9 kPa | 957.3 kg/m3
234 kPa | 957.2 kg/m3 and 957.3 kg/m3
234.4 kPa | 957.2 kg/m3
234.6 kPa | 957.1 kg/m3 and 957.4 kg/m3 and 957.3 kg/m3
234.7 kPa | 957.3 kg/m3
234.9 kPa | 957.2 kg/m3
235.1 kPa | 957.2 kg/m3
235.2 kPa | 957.2 kg/m3
235.6 kPa | 957.2 kg/m3
235.8 kPa | 957.1 kg/m3
236 kPa | 957.2 kg/m3
236.1 kPa | 957.2 kg/m3 and 957.3 kg/m3
236.3 kPa | 957.3 kg/m3
236.5 kPa | 957.1 kg/m3
236.6 kPa | 957.2 kg/m3
236.8 kPa | 957.2 kg/m3
237 kPa | 957.1 kg/m3 and 957.2 kg/m3 and 957.3 kg/m3
237.3 kPa | 957.3 kg/m3
237.5 kPa | 957.2 kg/m3
237.7 kPa | 957.2 kg/m3 and 957.4 kg/m3
237.9 kPa | 957.2 kg/m3
238 kPa | 957.3 kg/m3
238.2 kPa | 957.2 kg/m3
238.4 kPa | 957.3 kg/m3
238.6 kPa | 957.3 kg/m3
238.7 kPa | 957.3 kg/m3
238.9 kPa | 957.3 kg/m3
239.2 kPa | 957.1 kg/m3
239.3 kPa | 957.3 kg/m3
240.1 kPa | 957.3 kg/m3
240.3 kPa | 957.3 kg/m3
240.5 kPa | 957.3 kg/m3 and 957.2 kg/m3
240.6 kPa | 957.1 kg/m3
240.8 kPa | 957.3 kg/m3
241.2 kPa | 957.4 kg/m3
241.3 kPa | 957.3 kg/m3 and 957.2 kg/m3
241.5 kPa | 957.3 kg/m3 and 957.1 kg/m3
242 kPa | 957.3 kg/m3
242.2 kPa | 957.3 kg/m3
242.4 kPa | 957.2 kg/m3
242.6 kPa | 957.3 kg/m3
